This is an account of results in patent USH1168H, “Inhibitors of protein kinase C activity as protectors against septic shock and reducers of ARDS” (priority 1991, dated 1993).

One test deals with platelets. The settings on record: pretreatment; stimulation with thrombin, OAG, linoleic or linolelaidic acid (25); cited from earlier work.
The test system of test [1] is rat aortic rings. As to the kind of experiment: KCl-induced contraction of rat aortic rings after 16 h incubation with phorbol dibutyrate. The test is classed as cell-based. The settings on record: for EC50: Rattus norvegicus, 16 h. As to the method: (§1) (Panel B) Contraction to KCl by rings incubated and denoted with the same symbols as detailed above. Four rings were prepared from each rat and one ring allocated into each medium formulation to evaluate responses to NE. Rings were similarly prepared to determine responses to KCl. Data presented as in FIG. 1. N=6 rats apiece for assessment of responses to NE and KCl.
(§2) (Panel B) Contraction to KCl by rings incubated and denoted with the same symbols as detailed above. Four rings were prepared from each rat and one ring allocated into each medium formulation. Data is presented as in FIG. 1. N=8 rats for assessment of responses to both NE and KCl.
(§3) Tissue preparation and incubation. Male Sprague-Dawley rats (250-350 g, Taconic Farms, Germantown, N.Y.) were used. Rat thoracic aortic rings were prepared and incubated as detailed by McKenna (14). In brief, 4 or 6 rings were prepared from each rat. Care was taken during dissection to maintain the patency of the endothelium. Some aortas were de-endothelialized before sectioning into rings by perfusion with phosphate buffered saline (PBS) containing 1% deoxycholate for 30 sec followed by a PBS and bubble rinse for 5 min. Rings were incubated in DME (Dulbecco's Modified Eagle's medium) supplemented with 1% fetal calf serum, 100 μg/ml streptomycin, and 100 U/ml penicillin. During incubation, the rings were exposed to combinations of LPS (10 or 35 ng/ml), H7 (25 μM), HA1004 (N-(2-guanidinoethyl)-5-isoquinolinesulfonamide) (25 μM), sphingosine (20 μM), or their vehicles. […] Rings used in measures of contractile performance were placed individually in Petri dishes containing 1.2 ml DME and were distributed so that tissue isolated from each aorta was allocated to every combination of treatments within an experiment. […] All tissue isolated from an aorta (six rings) was allocated to a single treatment. The media and rings were rotated gently for 16-18 hr in an incubator at 37° C. under a 95% O2 -5% CO2 atmosphere.
(§4) Measurement of aortic ring contraction. After incubation, rings were mounted in tissue baths, equilibrated, and pre-contracted as previously detailed (14). These procedures required approximately 90 min. Rings were maintained in Krebs Ringer Bicarbonate buffer (KRB, 14). Contractions by six or eight rings were measured simultaneously and recorded on multichannel strip chart recorders. […] Other rings were contracted by withdrawing KRB from the tissue baths and adding increasing volumes of a high KCl KRB (120 mM, made by equimolar substitution of KCl for NaCl) to the baths to yield final KCl concentrations of 10 to 80 mM. All rings were blotted and weighed after experiments were completed.
(§5) Statistics. […] Tests for differences between EC50 values were based on log EC50 values (17). EC50 values were then converted to […] means to allow expression as nanomolar concentrations. Examination of differences among four or six treatment means was by randomized blocks analysis of variance; if significant differences were present, then pairs of means were tested by Student-Newman-Keuls a posteriori tests (18). Paired t-tests were used to assess differences between two treatment means. […] Differences with probabilities of 0.05 or less were accepted as significant. All data are expressed as means±SEM.

The test system of test [2] is rat aortic rings. As to the kind of experiment: Direct contraction of rat aortic rings by phorbol dibutyrate. Format: cell-based. The settings on record: for EC50: read-out: EC50 for contraction by PDB. Further details: Emax: dose or concentration left out as unconfirmed. As to the method:
Four rings were prepared from each rat and one ring allocated into each medium formulation. Data is presented as in FIG. 1.
as §3, §4, §5

Test [3] concerns rat aortic rings. The experiment in a line: NE-induced contraction of rat aortic rings after 16 h incubation with phorbol dibutyrate. Further details: contractions to NE; vascular suppression: dose or concentration left out as unconfirmed. Format: cell-based. The settings on record: for EC50: Rattus norvegicus, 16 h. As to the method:
as §1, §2, §3, §4, §5

The subject of the next test is endothelial cells. The settings on record: literature (1, 2); cited from earlier work.
Another test relates to PKC. The settings on record: literature (33,34); cited from earlier work.

In general, EC50 refers to the concentration at which the effect is half-maximal.

Entries after “also recorded” stand apart in the source; their conditions may differ.

On to polymyxin B, for which, in the test with platelets, the “platelet aggregation after stimulation” value is “blocked”.
For `CCCC(=O)O[C@@H]1[C@@H](C)[C@@]2(O)[C@@H](C=C(CO)C[C@]3(O)C(=O)C(C)=C[C@@H]23)[C@@H]2C(C)(C)[C@]12OC(=O)CCC` [PDB, 4β-phorbol-12,13-dibutyrate], the EC50 in the test with rat aortic rings [1] (read-out: EC50 value for KCl contraction (EC50 of the agonist KCl), rings incubated with 4β-PDB 0.1 μM, 16 h) came out at 22000 µM; in the test on rat aortic rings [1] (read-out: EC50 value for KCl contraction (EC50 of the agonist KCl), rings incubated with 4β-PDB 1.0 μM, 16 h), 27000 µM; in the test on rat aortic rings [1] (read-out: EC50 value for KCl contraction (EC50 of the agonist KCl), rings incubated with 4β-PDB 10.0 μM, 16 h), 36000 µM; with rat aortic rings [2] (Rattus norvegicus, 16 h), 0.041 ± 0.003 µM; in the test on rat aortic rings [2] (Rattus norvegicus), 0.032 ± 0.004 µM; in the test with rat aortic rings [3] (read-out: EC50 value for NE contraction (EC50 of the agonist NE), rings incubated with 4β-PDB 0.1 μM, 16 h), 0.056 µM. The half-maximal effective concentration (EC50) with rat aortic rings [3] (read-out: EC50 value for NE contraction (EC50 of the agonist NE), rings incubated with 4β-PDB 1.0 μM, 16 h) is 0.184 µM; with rat aortic rings [3] (read-out: EC50 value for NE contraction (EC50 of the agonist NE), rings incubated with 4β-PDB 10.0 μM, 16 h) it was 0.283 µM. The Emax in the test on rat aortic rings [2] (Rattus norvegicus, read-out: maximum contraction caused by PDB) is over 90%.
With `CCCC(=O)O[C@@H]1[C@@H](C)[C@@]2(O)[C@@H](C=C(CO)C[C@@]3(O)C(=O)C(C)=C[C@@H]23)[C@@H]2C(C)(C)[C@]12OC(=O)CCC` [4α-PDB, 4-α-phorbol-12,13-dibutyrate], in the test with rat aortic rings [1] (10 μM 4α-PDB), the “alterations in EC50 values for KCl” value was “no significant alterations in EC50 values for the agonists”; the “contractions to KCl” value was “significantly impaired contractions to NE and KCl”. For the same compound, in the test on rat aortic rings [1] (read-out: EC50 value for KCl contraction (EC50 of the agonist KCl), rings incubated with 4α-PDB 10.0 μM, 16 h), the EC50 worked out at 28000 µM. Also, the “contraction of aortic rings by 4α-PDB itself” value with rat aortic rings [2] (concentrations up to 10 μM (data not shown)) was “could not contract aortic rings at concentrations up to 10 μM”. Also, the “contractions to NE; vascular suppression” value in the test on rat aortic rings [3] is “significantly impaired contractions to NE and KCl; also recorded: equally effective at causing vascular suppression”. Besides, the “alterations in EC50 values for NE” value with rat aortic rings [3] (10 μM 4α-PDB) is “no significant alterations in EC50 values for the agonists”. Moreover, the EC50 with rat aortic rings [3] (read-out: EC50 value for NE contraction (EC50 of the agonist NE), rings incubated with 4α-PDB 10.0 μM, 16 h) was 0.286 µM.
Consider `CN[C@@H]1C[C@H]2O[C@@](C)([C@@H]1OC)n1c3ccccc3c3c4c(c5c6ccccc6n2c5c31)C(=O)NC4` [staurosporine], for which, in the test on platelets, the “platelet aggregation after stimulation” value is recorded as “blocked”. Also, the “adhesive proteins on endothelial cell surfaces” value with endothelial cells is reported as “reduced”.
In the case of lipid A, in the test on PKC, the “activation of PKC in vitro” value was “can directly activate PKC in vitro”.
